The values below come from PubChem BioAssay (NCI).

Values joined by “and” are separate entries in the source; they are usually repeats but may differ in a detail not shown here. Equal values may be shown once.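 Assay format: 96-well plates, 48-hour exposure. GI50 is the concentration that inhibits growth by half. At the TGI there is no net growth.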

Some test systems named below: NCI-H522 lung; TK-10 renal; A549 NSCLC; MDA-MB-231 breast; HS 578T breast; MCF7 breast; BT-549 breast; SNB-19 CNS; SN12C renal; K-562 leukemia.
What all share (experiment): growth of human tumour cells (NCI), 48 h

As for `Cc1ccc(S(=O)(=O)Cc2nc(-c3ccc(C(=O)NCc4cccnc4)cc3)oc2C)cc1`, the GI50 is 1.33 µM in the assay on NCI-H522 lung; above 67.8 µM in the assay with TK-10 renal; above 21.5 µM in the assay on A549 NSCLC; 5.78 µM with MDA-MB-231 breast; 7.9 µM with HS 578T breast; 3.93 µM in the assay with MCF7 breast. In addition, the GI50 is 3.37 µM in the assay on BT-549 breast, 0.0869 µM in the assay with SNB-19 CNS, below 0.01 µM in the assay with SN12C renal and below 0.01 µM in the assay on K-562 leukemia. Moreover, the TGI in the assay with NCI-H522 lung was 27.7 µM; in the assay with TK-10 renal, above 100 µM; in the assay on A549 NSCLC it was above 100 µM; in the assay on MDA-MB-231 breast, above 100 µM; in the assay with HS 578T breast, above 100 µM; in the assay with MCF7 breast it was above 100 µM. For the same compound, the TGI in the assay on BT-549 breast, in the assay with SNB-19 CNS, with SN12C renal and in the assay with K-562 leukemia was above 100 µM each time.

Turning to `CCCCCCCCCCCCOC1C(CNC(=O)C2OC3OC(C)(C)OC3C2NC(=O)CN2CCCCCC2)OC2OC(C)(C)OC21` (stereo not given), the GI50 in the assay on NCI-H522 lung is 5.07 µM; in the assay on TK-10 renal, 8.27 µM; in the assay on A549 NSCLC it was 4.46 µM; in the assay on MDA-MB-231 breast, 9.7 µM; in the assay with HS 578T breast, 3.79 µM; in the assay with MCF7 breast it was 3.7 µM. The GI50 with BT-549 breast was 9.06 µM; in the assay on SNB-19 CNS, 10.3 µM; in the assay with SN12C renal, 9.64 µM; with K-562 leukemia, 3.43 µM. In addition, the TGI in the assay on NCI-H522 lung is 17.8 µM; in the assay with TK-10 renal, 22.5 µM; with A549 NSCLC, 17.8 µM; in the assay with MDA-MB-231 breast, 23 µM; in the assay on HS 578T breast it was 18.5 µM; in the assay with MCF7 breast, 14.3 µM. In addition, the TGI with BT-549 breast came to 22.1 µM; with SNB-19 CNS it was 23.8 µM; with SN12C renal, 24.6 µM; in the assay with K-562 leukemia, 10.9 µM.

With `CC(=O)OC1CC2C(C)(C)C(=O)C=CC2(C)C2CCC3(C)C(c4ccoc4)OC(=O)C4OC43C12C` (stereo not given), the TGI in the assay with NCI-H522 lung was 19.8 µM; with TK-10 renal, above 100 µM; with A549 NSCLC, 86.9 µM; with MDA-MB-231 breast, 14.1 µM; in the assay with HS 578T breast, above 100 µM; with MCF7 breast it was 29.5 µM. In addition, the TGI in the assay with BT-549 breast was 44.4 µM; in the assay on SNB-19 CNS, above 100 µM; with SN12C renal, 17.2 µM; with K-562 leukemia, above 100 µM.

In the case of `Cc1nc2n(c(=O)c1CCN1CCC(c3noc4cc(F)ccc34)CC1)CCCC2`, the GI50 with NCI-H522 lung, with TK-10 renal, in the assay on A549 NSCLC, in the assay on MDA-MB-231 breast, with HS 578T breast and with MCF7 breast was above 50 µM in each case. Moreover, the GI50 with BT-549 breast, with SNB-19 CNS, in the assay with SN12C renal and in the assay on K-562 leukemia was above 50 µM throughout. Also, the TGI in the assay on NCI-H522 lung, in the assay with TK-10 renal, in the assay with A549 NSCLC, in the assay on MDA-MB-231 breast, in the assay on HS 578T breast and with MCF7 breast was above 50 µM each time. Moreover, the TGI with BT-549 breast, with SNB-19 CNS, with SN12C renal and with K-562 leukemia was above 50 µM in each case.

Regarding `COc1ccc2c(c1)[n+](=O)c(C(=O)/C=C/c1cc(OC)c(OC)c(OC)c1)c(C)n2[O-]`, the GI50 in the assay on NCI-H522 lung was 19 µM; with TK-10 renal it was 18.9 µM; in the assay on A549 NSCLC, 34.9 µM; in the assay on MDA-MB-231 breast it was 13.5 µM; with HS 578T breast, 11.8 µM; in the assay on MCF7 breast, 18 µM. Also, the GI50 is 12.6 µM in the assay on BT-549 breast, 14.1 µM with SNB-19 CNS, 28.2 µM with SN12C renal and above 100 µM in the assay on K-562 leukemia. Also, the TGI was 56.6 µM in the assay on NCI-H522 lung; 36 µM with TK-10 renal; above 100 µM with A549 NSCLC; 35.2 µM in the assay with MDA-MB-231 breast; 34.5 µM in the assay on HS 578T breast; 88.4 µM in the assay on MCF7 breast. Also, the TGI in the assay on BT-549 breast is 28.9 µM; with SNB-19 CNS, 36.5 µM; in the assay with SN12C renal, above 100 µM; in the assay on K-562 leukemia it was above 100 µM.

As to `Cc1c(NC(=O)OC[C@@H]2COCCN2)cn2ncnc(Nc3ccc4c(cnn4Cc4cccc(F)c4)c3)c12`, the GI50 in the assay on NCI-H522 lung is > 10 µM and 2.16 µM; in the assay with TK-10 renal it was 0.546 µM and 0.415 µM; with A549 NSCLC, > 10 µM and 8.26 µM; in the assay on MDA-MB-231 breast, 4.89 µM and 2.99 µM; with HS 578T breast, 2.32 µM and 5.49 µM; in the assay with MCF7 breast, > 10 µM and 12.1 µM. In addition, the GI50 with BT-549 breast was > 10 µM and 8.52 µM; in the assay with SNB-19 CNS, > 10 µM and 9.04 µM; in the assay on SN12C renal it was > 10 µM and 3.32 µM; with K-562 leukemia, 3.91 µM and 4.53 µM. The TGI with NCI-H522 lung is > 10 µM and 17.4 µM; with TK-10 renal it was > 10 µM and 15.7 µM; in the assay on A549 NSCLC it was > 10 µM and 21.5 µM; in the assay with MDA-MB-231 breast, > 10 µM and 13.4 µM; in the assay on HS 578T breast it was > 10 µM and 52.2 µM; with MCF7 breast, > 10 µM and 33.6 µM. Further, the TGI with BT-549 breast was > 10 µM and 22.7 µM; in the assay with SNB-19 CNS it was > 10 µM and 23.2 µM; with SN12C renal it was > 10 µM and 20.4 µM; with K-562 leukemia, > 10 µM and 17.1 µM.

For `COc1ccc(-c2csc(-c3cc(Cl)cc(Cl)c3Cl)n2)cc1`, the GI50 with NCI-H522 lung is above 100 µM; in the assay with TK-10 renal, above 100 µM; with A549 NSCLC, 68.3 µM; in the assay on MDA-MB-231 breast it was 60 µM; with HS 578T breast, 46.8 µM; in the assay with MCF7 breast, 5.91 µM. Besides, the GI50 in the assay with BT-549 breast is 92.2 µM; in the assay with SNB-19 CNS, 50.3 µM; in the assay with SN12C renal, above 100 µM; in the assay on K-562 leukemia, 46 µM. The TGI with NCI-H522 lung, with TK-10 renal, in the assay on A549 NSCLC, in the assay on MDA-MB-231 breast, in the assay with HS 578T breast and with MCF7 breast was above 100 µM in each case. Further, the TGI with BT-549 breast, in the assay with SNB-19 CNS, with SN12C renal and in the assay on K-562 leukemia was above 100 µM in each case.

Consider `CS(=O)(=O)CCNCc1ccc(-c2ccc3ncnc(Nc4ccc(OCc5ccccc5)c(Cl)c4)c3c2)o1`, for which the GI50 was 2.2 µM in the assay with NCI-H522 lung; 0.158 µM with TK-10 renal; 7.18 µM in the assay with A549 NSCLC; 4.3 µM with MDA-MB-231 breast; 3.55 µM with HS 578T breast; 5.06 µM in the assay with MCF7 breast. Moreover, the GI50 in the assay with BT-549 breast was 6.9 µM; with SNB-19 CNS, 10.4 µM; in the assay with SN12C renal, 11.9 µM; in the assay with K-562 leukemia it was 5.45 µM. The TGI with NCI-H522 lung is 6.79 µM; in the assay with TK-10 renal, above 14.1 µM; with A549 NSCLC, above 25 µM; in the assay with MDA-MB-231 breast, 9.31 µM; in the assay with HS 578T breast, 12.7 µM; in the assay on MCF7 breast it was above 13.8 µM. Moreover, the TGI is above 25 µM with BT-549 breast, above 25 µM in the assay on SNB-19 CNS, above 25 µM with SN12C renal and 14.4 µM in the assay on K-562 leukemia.
